{"source": "patent US6855351B2", "about": "“Pesticide formulation containing azadirachtin (not less than 300 ppm) and salanin in a formulated product with neem oil” (T. Stanes and Company Limited, priority 2002, dated 2005)", "origin": "cited, not measured here", "test_system": "mammals", "conditions": "in vivo", "data": [{"smiles": "C/C=C(\\C)C(=O)O[C@H]1C[C@@H](OC(C)=O)[C@@]2(C(=O)OC)CO[C@H]3[C@@H](O)[C@@](C)([C@]45O[C@@]4(C)[C@H]4C[C@@H]5O[C@@H]5OC=C[C@@]54O)[C@H]4[C@]1(CO[C@]4(O)C(=O)OC)[C@@H]32", "note": "[Azadirachtin]", "values": [{"measurement": "mammalian toxicity", "value": "no apparent mammalian toxicity"}]}]}
